According to patent US6284768A, “Src family SH2 domain inhibitors” (Boehringer Ingelheim Pharmaceuticals, Inc., priority 1999, dated 2001):

What follows are molecules tested against T1, p56lck GST-SH2 (lck SH2 domain) (Homo sapiens, UniProt P06239) (assay: Receptor-ligand equilibrium binding constants by surface plasmon resonance (biosensor), lck SH2 domain). Settings: Table 1, compounds of formula (II).
T1 construct: GST (N)
Description: The general methods for the determination of Receptor-Ligand Kinetic and Equilibrium Binding Constants using Surface Plasmon Resonance as applied to the lck SH2 Domain have been described in: M. M. Morelock, R. H. Ingraham, R. Betageri.
General Biosensor Methods.
The mobile phase buffer, 10 mM HEPES, pH 7.4, 150 mM NaCl, and 0.05% P-20, was maintained at a flow rate of 5 μL/min in all experiments. All buffers and protein solutions were filtered through a 0.2 um filter and degassed immediately before use.
Strepavidin was diluted to 0.25 mg/ml in 20 mM NaOAc buffer, pH 4.5 and immobilized by free amine coupling to approximately 3000 RU for all 4 flow cells from a single sensor chip .
Surface Kd Determinations.
The surface was regenerated by 4μL of 20 mM HCl followed by 4 μL of 150 mM Tris base. The values used in the analysis were the equilibrium plateau values from which the sample refractive index has been subtracted. For the data analyzed for linear function the equilibrium plateau values without the sample refractive index subtracted were used. Free solution Kd determinations. In a 96 well microtiter plate 20 nM SH2 domain suspended in running buffer containing 0.2 mg/ml BSA and 1 mM DT'T was distributed in 100 μL per well. The highest concentration of compound tested was added to the last well and titrated with 2 fold dilutions for a final of 10 concentrations to be run. 25 μL of the mixture was injected over a strepavidin-biotin-ε-aminohexanoic acid-EGQpYEEIPIA surface and regenerated with 4 μL of 20 mM HCl. […], of 150 mM Tris base was injected after every 11 samples. Typically 8 assays were run in an overnight programmed run.

T1 sequence (P06239 127-224 limits assumed): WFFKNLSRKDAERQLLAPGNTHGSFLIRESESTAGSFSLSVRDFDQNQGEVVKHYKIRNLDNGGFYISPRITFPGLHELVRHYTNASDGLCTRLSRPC

Q: With CCc1ccn(Cc2ccc(OC)cc2)c(=O)c1NC(=O)[C@H](Cc1ccc(CC(=O)O)cc1)NC(=O)Cc1cccc2ccccc12 [Compound 92, 3-[2'-(S)-(1'"-Naphthylacetyl)amino-3'-(4"-carboxymethyl)benzene]propanoylamino-1-(4-methoxy)benzyl-4-ethyl-2-pyridone] as the molecule, how does the Kd read?
A: 3.8 µM

Q: How did the Kd turn out when COc1ccc(Cn2ccc(C)c(NC(=O)[C@H](Cc3ccc(CC(=O)O)cc3)NC(=O)Cc3ccc(N(C)C)cc3)c2=O)cc1 [Compound 93] was run?
A: 12 µM

Q: For COc1ccc(Cn2ccc(C)c(NC(=O)[C@H](Cc3ccc(N(O)C(=O)C(=O)O)cc3)NC(C)=O)c2=O)cc1 [Compound 95], which Kd is on record?
A: 5.4 µM

Q: With Cc1ccn(Cc2ccc(C(C)C)cc2)c(=O)c1NC(=O)[C@H](Cc1ccc(N(O)C(=O)C(=O)O)cc1)NC(=O)Cc1ccc(N(C)C)cc1 [Compound 96] as the molecule, how does the Kd read?
A: 23 µM

Q: Which Kd does the source give for COc1ccc(Cn2ccc(C)c(NC(=O)[C@H](Cc3ccc(C(C)(C)C(=O)O)cc3)NC(=O)Cc3c[nH]c4ccccc34)c2=O)cc1 [Compound 98] here?
A: 0.43 µM

Q: How did the Kd turn out when COc1ccc(Cn2ccc(C)c(NC(=O)[C@H](Cc3ccc(C(C)(C)C(=O)O)cc3)NC(=O)Cc3ccc(N(C)C)cc3)c2=O)cc1 [Compound 99] was run?
A: 0.13 µM

Q: How did the Kd turn out when Cc1ccn(Cc2ccc(C(C)C)cc2)c(=O)c1NC(=O)[C@H](Cc1ccc(C(C)(C)C(=O)O)cc1)NC(=O)Cc1c[nH]c2ccccc12 [Compound 100] was run?
A: 1.5 µM

Q: For Cc1ccn(Cc2ccc(C(C)C)cc2)c(=O)c1NC(=O)[C@H](Cc1ccc(C(C)(C)C(=O)O)cc1)NC(=O)Cc1cccc2ccccc12 [Compound 101], which Kd is on record?
A: 4.3 µM

Q: For COc1ccc(Cn2ccc(C)c(NC(=O)[C@H](Cc3ccc(NC(=O)C(=O)O)cc3)NC(=O)Cc3ccccc3)c2=O)cc1 [Compound 102], which Kd is on record?
A: 1.9 µM

Q: Which Kd does the source give for COc1ccc(Cn2ccc(C)c(NC(=O)[C@H](Cc3ccc(NC(=O)C(=O)O)cc3)NC(=O)Nc3ccc(C(C)C)cc3)c2=O)cc1 [Compound 103] here?
A: 12 µM

Q: Which Kd does the source give for COc1ccc(Cn2ccc(C)c(NC(=O)[C@H](Cc3ccc(NC(=O)C(=O)O)cc3)NC(=O)Cc3ccc(NC(=O)C(C)(C)C)cc3)c2=O)cc1 [Compound 104] here?
A: 0.65 µM

Q: With COc1ccc(Cn2ccc(C)c(NC(=O)[C@H](Cc3ccc(NC(=O)C(=O)O)cc3)NC(=O)Cc3cccc([N+](=O)[O-])c3)c2=O)cc1 [Compound 105] as the molecule, how does the Kd read?
A: 0.82 µM

Q: COc1ccc(Cn2ccc(C)c(NC(=O)[C@H](Cc3ccc(C(C)(C)C(=O)O)cc3)NC(=O)Cc3ccc(Br)cc3)c2=O)cc1 [Compound 110] was tested. Which Kd did it give?
A: 0.18 µM

Q: COc1ccc(Cn2ccc(C)c(NC(=O)[C@H](Cc3ccc(C(C)(C)C(=O)O)cc3)NC(=O)Cc3ccccc3C)c2=O)cc1 [Compound 113] was tested. Which Kd did it give?
A: 0.87 µM

Q: Which Kd does the source give for COc1ccc(Cn2ccc(C)c(NC(=O)[C@H](Cc3ccc(C(C)(C)C(=O)O)cc3)NC(=O)Cc3ccc(C)cc3)c2=O)cc1 [Compound 114] here?
A: 0.19 µM

Q: Which Kd does the source give for COc1ccc(Cn2ccc(C)c(NC(=O)[C@H](Cc3ccc(C(C)(C)C(=O)O)cc3)NC(=O)Cc3ccccc3)c2=O)cc1 [Compound 120] here?
A: 0.43 µM

Q: How did the Kd turn out when CCCCCCn1cc(C(=O)OC)c(C)c(NC(=O)C(Cc2ccc(C(C)(C)C(=O)O)cc2)NC(=O)C(C)(C)c2ccc3ccccc3c2)c1=O (stereo not drawn) [Compound 121] was run?
A: 2.7 µM

Q: COc1ccc(Cn2cc(Br)c(C)c(NC(=O)C(Cc3ccc(C(C)(C)C(=O)O)cc3)NC(=O)C(C)(C)c3ccc(Br)cc3)c2=O)cc1 (stereo not drawn) [Compound 122] was tested. Which Kd did it give?
A: 5.3 µM

Q: For COc1ccc(Cn2ccc(C)c(NC(=O)[C@H](Cc3ccc(C(C)(C)C(=O)O)cc3)NC(=O)Cc3ccc(N(Cc4ccccc4)Cc4ccccc4)cc3)c2=O)cc1 [Compound 131], which Kd is on record?
A: > 1.3 µM

Q: How did the Kd turn out when Cc1ccn(Cc2ccc(O)cc2)c(=O)c1NC(=O)[C@H](Cc1ccc(C(C)(C)C(=O)O)cc1)NC(=O)C(C)(C)c1cccc2ccccc12 [Compound 134] was run?
A: 5.7 µM

Q: Which Kd does the source give for COc1ccc(Cn2ccc(C)c(NC(=O)[C@H](Cc3ccc(C(CO)C(=O)O)cc3)NC(=O)Cc3cccc4ccccc34)c2=O)cc1 (stereo partly drawn) [Compound 136, 3-[2'-(S)-(1'"-Naphthylacetyl)amino-3'-[4"-(1'"-(R,S)-carboxy-2'"-hydroxy)ethyl]benzene]propanoylamino-1-(4-methoxybenzyl)-4-methyl-2-pyridone] here?
A: 5.6 µM

Q: Which Kd does the source give for COCCOCCn1ccc(C)c(NC(=O)C(Cc2ccc(C(C)(C)C(=O)O)cc2)NC(=O)Cc2ccc3ccccc3c2)c1=O (stereo not drawn) [Compound 143] here?
A: 6 µM

Q: COCCOCCn1ccc(C)c(NC(=O)C(Cc2ccc(C(C)(C)C(=O)O)cc2)NC(=O)C(C)(C)c2ccc3ccccc3c2)c1=O (stereo not drawn) [Compound 144] was tested. Which Kd did it give?
A: 20 µM

Q: Which Kd does the source give for COC1CCC(Cn2ccc(C)c(NC(=O)C(Cc3ccc(C(C)(C)C(=O)O)cc3)NC(=O)Cc3ccc4ccccc4c3)c2=O)CC1 (stereo not drawn) [Compound 147] here?
A: 1.9 µM

Q: How did the Kd turn out when COC1CCC(Cn2ccc(C)c(NC(=O)C(Cc3ccc(C(C)(C)C(=O)O)cc3)NC(=O)Cc3ccc(C(F)(F)F)cc3)c2=O)CC1 (stereo not drawn) [Compound 148] was run?
A: 3.6 µM

Q: How did the Kd turn out when COc1c(F)c(F)c(Cn2ccc(C)c(NC(=O)C(Cc3ccc(C(C)(C)C(=O)O)cc3)NC(=O)Cc3ccc4ccccc4c3)c2=O)c(F)c1F (stereo not drawn) [Compound 153] was run?
A: 2.1 µM

Q: With COc1cc(Cn2ccc(C)c(NC(=O)C(Cc3ccc(C(C)(C)C(=O)O)cc3)NC(=O)Cc3ccc4ccccc4c3)c2=O)cc(OC)c1OC (stereo not drawn) [Compound 157] as the molecule, how does the Kd read?
A: 21 µM

Q: Which Kd does the source give for COc1ccc(Cn2ccc(C)c(NC(=O)C(Cc3ccc(C(C)(C)C(=O)O)cc3)NC(=O)Cc3ccc4ccccc4c3)c2=O)cc1O (stereo not drawn) [Compound 160] here?
A: 5.8 µM

Q: For COc1ccc(Cn2ccc(C)c(NC(=O)C(Cc3ccc(C(C)(C)C(=O)O)cc3)N(C)C(=O)C(C)(C)c3ccc4ccccc4c3)c2=O)cc1 (stereo not drawn) [Compound 161], which Kd is on record?
A: 460 µM

Q: Which Kd does the source give for COc1ccc(Cn2ccc(C)c(NC(=O)[C@H](Cc3ccc(CC(=O)O)cc3)NC(=O)Cc3ccc(C(C)(C)C)cc3)c2=O)cc1 [Compound 162] here?
A: 1 µM

Q: For COc1ccc(Cn2ccc(C)c(NC(=O)[C@H](Cc3ccc(CC(=O)O)cc3)NC(=O)Cc3ccc(CC(C)(C)C)cc3)c2=O)cc1 [Compound 163], which Kd is on record?
A: 1.1 µM

Q: Which Kd does the source give for COc1ccc(Cn2ccc(C)c(NC(=O)[C@H](Cc3ccc(CC(=O)O)cc3)NC(=O)Cc3cccc(OC(C)(C)C)c3)c2=O)cc1 [Compound 164] here?
A: 1.6 µM

Q: For COc1ccc(Cn2ccc(C)c(NC(=O)[C@H](Cc3ccc(CC(=O)O)cc3)NC(=O)Cc3cccc(O)c3)c2=O)cc1 [Compound 165], which Kd is on record?
A: 2.8 µM

Q: Which Kd does the source give for COc1ccc(Cn2ccc(C)c(NC(=O)[C@H](Cc3ccc(CC(=O)O)cc3)NC(=O)COc3ccc4ccccc4c3)c2=O)cc1 [Compound 166] here?
A: 1.7 µM

Q: For COc1ccc(Cn2ccc(C)c(NC(=O)[C@H](Cc3ccc(CC(=O)O)cc3)NC(=O)COc3cccc4c(N(C)C)cccc34)c2=O)cc1 [Compound 167], which Kd is on record?
A: 1.2 µM

Q: COc1ccc(Cn2ccc(C)c(NC(=O)C(Cc3ccc(C(C)(C)C(=O)O)cc3)NC(=O)C(C)C)c2=O)cc1 (stereo not drawn) [Compound 170] was tested. Which Kd did it give?
A: 3.9 µM

Q: COc1ccc(Cn2ccc(C)c(NC(=O)C(Cc3ccc(C(C)(C)C(=O)O)cc3)NC(=O)C(C)(C)C)c2=O)cc1 (stereo not drawn) [Compound 171] was tested. Which Kd did it give?
A: 4.3 µM

Q: COc1ccc(Cn2ccc(C)c(NC(=O)C(Cc3ccc(C(C)(C)C(=O)O)cc3)NC(=O)C(F)(F)F)c2=O)cc1 (stereo not drawn) [Compound 176] was tested. Which Kd did it give?
A: 1.8 µM

Q: Cc1ccn(C/C=C/c2ccccc2)c(=O)c1NC(=O)C(Cc1ccc(C(C)(C)C(=O)O)cc1)NC(=O)C(C)(C)c1ccc2ccccc2c1 (stereo not drawn) [Compound 177] was tested. Which Kd did it give?
A: 3.2 µM

Q: For COCCOCn1ccc(C)c(NC(=O)C(Cc2ccc(C(C)(C)C(=O)O)cc2)NC(=O)Cc2cccc3ccccc23)c1=O (stereo not drawn) [Compound 188], which Kd is on record?
A: 45 µM

Q: For COCCOCn1ccc(C)c(NC(=O)C(Cc2ccc(C(C)(C)C(=O)O)cc2)NC(=O)Cc2ccc3ccccc3c2)c1=O (stereo not drawn) [Compound 189], which Kd is on record?
A: 13 µM

Q: Which Kd does the source give for COCCOCn1ccc(C)c(NC(=O)C(Cc2ccc(C(C)(C)C(=O)O)cc2)NC(=O)C(C)(C)c2ccc3ccccc3c2)c1=O (stereo not drawn) [Compound 190] here?
A: 43 µM

Q: For CCCCCn1ccc(C)c(NC(=O)C(Cc2ccc(C(C)(C)C(=O)O)cc2)NC(=O)Cc2cccc3ccccc23)c1=O (stereo not drawn) [Compound 191], which Kd is on record?
A: 3.1 µM

Q: CCCCCn1ccc(C)c(NC(=O)C(Cc2ccc(C(C)(C)C(=O)O)cc2)NC(=O)C(C)(C)c2ccc3ccccc3c2)c1=O (stereo not drawn) [Compound 193] was tested. Which Kd did it give?
A: 4.1 µM

Q: Which Kd does the source give for Cc1ccn(Cc2ccccc2)c(=O)c1NC(=O)C(Cc1ccc(C(C)(C)C(=O)O)cc1)NC(=O)Cc1cccc2ccccc12 (stereo not drawn) [Compound 197] here?
A: 9 µM

Q: Which Kd does the source give for Cc1ccn(Cc2ccccc2)c(=O)c1NC(=O)C(Cc1ccc(C(C)(C)C(=O)O)cc1)NC(=O)Cc1ccc2ccccc2c1 (stereo not drawn) [Compound 198] here?
A: 2.5 µM

Q: For Cc1ccn(CCc2ccccc2)c(=O)c1NC(=O)C(Cc1ccc(C(C)(C)C(=O)O)cc1)NC(=O)Cc1cccc2ccccc12 (stereo not drawn) [Compound 199], which Kd is on record?
A: 9.1 µM

Q: How did the Kd turn out when Cc1ccn(Cc2ccoc2)c(=O)c1NC(=O)C(Cc1ccc(C(C)(C)C(=O)O)cc1)NC(=O)Cc1cccc2ccccc12 (stereo not drawn) [Compound 201] was run?
A: 6.7 µM

Q: Cc1ccn(Cc2ccoc2)c(=O)c1NC(=O)C(Cc1ccc(C(C)(C)C(=O)O)cc1)NC(=O)Cc1ccc2ccccc2c1 (stereo not drawn) [Compound 202] was tested. Which Kd did it give?
A: 2.5 µM

Q: Cc1ccn(Cc2ccoc2)c(=O)c1NC(=O)C(Cc1ccc(C(C)(C)C(=O)O)cc1)NC(=O)C(C)(C)c1ccc2ccccc2c1 (stereo not drawn) [Compound 203] was tested. Which Kd did it give?
A: 11 µM

Q: CCCCCCn1ccc(C)c(NC(=O)C(Cc2ccc(C(C)(C)C(=O)O)cc2)NC(=O)CCc2ccccc2)c1=O (stereo not drawn) [Compound 204] was tested. Which Kd did it give?
A: 10 µM
